Laboratory results reported in the supplement of paper PMC10627819.

Tests used:
[1] = system: S. aureus Newman; experiment: fitness (endpoint OD595 vs no drug) (fraction); higher = more growth
Outline: (§1)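 Background-subtracted growth curves were the basis for fitness, taken as the optical density at entry into stationary phase over the robust mean of no-drug control wells. A cap of 1 was applied. The curves came from OD595 readings every 30 min for 14 h at 37 °C, in 384-well plates seeded at OD595 0.01 with 30 µl, or 55 µl for S. pneumoniae.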

[2] = system: S. aureus DSM 20231; experiment: as above
Outline: as §1

[3] = system: B. subtilis 168; experiment: Bliss interaction score (quartile over a dose matrix) (fitness difference); higher = more antagonism (negative = synergy)
Outline: (§2)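 Fitness was defined as normalised growth: OD595 at the start of stationary phase divided by the plate's robust no-drug mean and capped at 1. Single-drug fitness was inferred from combination measurements. The Bliss score is observed fitness minus the product of the single-drug values, summarised by quartiles across technical, biological and donor/recipient replicates.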

[4] = system: S. aureus Newman; experiment: as above
Outline: as §2

[5] = system: S. aureus DSM 20231; experiment: as above
Outline: as §2

[6] = system: S. pneumoniae D39V; experiment: as above
Outline: as §2
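For Bliss interaction score (quartile over a dose matrix) in this document: first quartile when negative (synergy) and third quartile when positive (antagonism).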

CCCCCCCCCC(=O)N[C@H]1[C@H](Oc2c3cc4cc2Oc2ccc(cc2Cl)[C@@H](O[C@@H]2O[C@H](CO)[C@@H](O)[C@H](O)[C@H]2NC(C)=O)[C@@H]2NC(=O)[C@H](NC(=O)[C@@H]4NC(=O)[C@H]4NC(=O)[C@@H](Cc5ccc(c(Cl)c5)O3)NC(=O)[C@H](N)c3ccc(O)c(c3)Oc3cc(O)cc4c3)c3ccc(O)c(c3)-c3c(O[C@H]4O[C@H](CO)[C@@H](O)[C@H](O)[C@@H]4O)cc(O)cc3[C@@H](C(=O)O)NC2=O)O[C@H](CO)[C@@H](O)[C@@H]1O [Teicoplanin] + CC1=C\[C@@H](O)CC(=O)Cc2nc(co2)C(=O)N2CCC=C2C(=O)O[C@H](C(C)C)[C@H](C)/C=C/C(=O)NC\C=C\1 [Virginiamycin M1]
fitness, one replicate, main component drawn
Conditions | first compound 0.1562 µg/mL | first compound 0.3125 µg/mL | first compound 0.62 µg/mL | first compound 0.625 µg/mL | first compound 1.24 µg/mL | first compound 2.48 µg/mL
[1], partner 0.0625 µg/mL | ≥ 1 | 0.97 | 0.773 | 0.843 | 0.78 | 0.473
[1], partner 0.125 µg/mL | ≥ 1 | ≥ 1 | 0.784 | 0.774 | 0.764 | 0.529
[1], partner 0.25 µg/mL | ≥ 1 | ≥ 1 | 0.831 | 0.839 | 0.766 | 0.486
[1], partner 0.5 µg/mL | 0.945 | 0.989 | – | ≥ 1 | – | –
[1], partner 1 µg/mL | ≥ 1 | 0.971 | – | ≥ 1 | – | –
[1], partner 2 µg/mL | 0.876 | 0.951 | – | ≥ 1 | – | –
[2], partner 0.5 µg/mL | ≥ 1 | ≥ 1 | – | ≥ 1 | – | –
[2], partner 1 µg/mL | 0.864 | 0.861 | – | ≥ 1 | – | –

fitness, [2], main component drawn
Conditions | first compound 0.1562 µg/mL | first compound 0.3125 µg/mL | first compound 0.625 µg/mL
partner 0.0625 µg/mL | 0.996 | ≥ 1 | ≥ 1
partner 0.125 µg/mL | ≥ 1 | ≥ 1 | ≥ 1
partner 0.25 µg/mL | ≥ 1 | ≥ 1 | ≥ 1

main component drawn
Conditions | Bliss interaction score
[3] | 0.117
[4] | 0.0746
[5] | 0.101
[6] | 0.262

O=C(N[C@H](CO)[C@H](O)c1ccc([N+](=O)[O-])cc1)C(Cl)Cl [Chloramphenicol] + CN1C2=CC=CC=C2N=C3C1=CC=CC3=O [Pyocyanin]
fitness
Conditions | first compound 0.75 µg/mL | first compound 1.5 µg/mL | first compound 3 µg/mL
[1], partner 1.25 µg/mL | 0.741 | 0.5 | 0.174
[1], partner 2.5 µg/mL | 0.725 | 0.41 | 0.137
[1], partner 5 µg/mL | 0.333 | 0.173 | 0.0578
[2], partner 1.25 µg/mL | 0.645 | – | 0.0788
[2], partner 2.5 µg/mL | – | 0.321 | –
[2], partner 5 µg/mL | – | 0.332 | 0.0653

Conditions | Bliss interaction score
[3] | 0.049
[4] | -0.0632
[5] | -0.0896
[6] | 0.0521

O=C(N[C@H](CO)[C@H](O)c1ccc([N+](=O)[O-])cc1)C(Cl)Cl [Chloramphenicol] + Cc1onc(-c2ccccc2)c1C(=O)N[C@@H]1C(=O)N2[C@@H]1SC(C)(C)[C@@H]2C(=O)O [Oxacillin]
fitness
Conditions | first compound 0.75 µg/mL | first compound 1.5 µg/mL | first compound 3 µg/mL
[1], partner 0.0156 µg/mL | 0.734 | 0.573 | 0.253
[1], partner 0.0312 µg/mL | 0.617 | 0.484 | 0.143
[1], partner 0.0625 µg/mL | 0.555 | 0.359 | –
[2], partner 0.0156 µg/mL | 0.677 | 0.461 | –
[2], partner 0.0312 µg/mL | 0.6 | 0.392 | 0.113
[2], partner 0.0625 µg/mL | 0.489 | 0.478 | 0.0972

Conditions | Bliss interaction score
[3] | -0.0473
[4] | 0.0445
[5] | 0.0696
[6] | 0.0937

O=C(O[C@@H]1Cc2c(O)cc(O)cc2O[C@@H]1c1cc(O)c(O)c(O)c1)c1cc(O)c(O)c(O)c1 [EGCG] + CCCCCCCCCC(=O)N[C@@H]1[C@H]([C@@H]([C@H](O[C@H]1OC2=C3C=C4C=C2OC5=C(C=C(C=C5)[C@H]([C@H]6C(=O)N[C@@H](C7=C(C(=CC(=C7)O)OC8[C@H]([C@H]([C@@H]([C@H](O8)CO)O)O)O)C9=C(C=CC(=C9)[C@H](C(=O)N6)NC(=O)[C@@H]4NC(=O)[C@@H]1C2=CC(=CC(=C2)OC2=C(C=CC(=C2)[C@H](C(=O)N[C@H](CC2=CC(=C(O3)C=C2)Cl)C(=O)N1)N)O)O)O)C(=O)O)O[C@H]1[C@@H]([C@H]([C@@H]([C@H](O1)CO)O)O)NC(=O)C)Cl)CO)O)O [Teicoplanin]
fitness, main component drawn
Conditions | first compound 12.5 µg/mL | first compound 25 µg/mL | first compound 50 µg/mL
[1], partner 0.1562 µg/mL | 0.833 | 0.805 | 0.749
[1], partner 0.3125 µg/mL | 0.716 | 0.824 | 0.698
[1], partner 0.625 µg/mL | 0.819 | 0.806 | 0.823
[2], partner 0.1562 µg/mL | 0.846 | 0.833 | 0.892
[2], partner 0.3125 µg/mL | 0.957 | 0.968 | 0.959
[2], partner 0.625 µg/mL | 0.935 | ≥ 1 | –

fitness, [1], one replicate, main component drawn
Conditions | first compound 12.5 µg/mL | first compound 25 µg/mL | first compound 50 µg/mL
partner 0.62 µg/mL | 0.62 | 0.662 | 0.558
partner 1.24 µg/mL | 0.646 | 0.604 | 0.565
partner 2.48 µg/mL | 0.538 | 0.51 | 0.475

main component drawn
Conditions | Bliss interaction score
[3] | -0.096
[4] | 0.0918
[5] | 0.125
[6] | 0.0672

O=C(N[C@H](CO)[C@H](O)c1ccc([N+](=O)[O-])cc1)C(Cl)Cl [Chloramphenicol] + Cn1nnc(-c2ccc(-c3ccc(N4C[C@H](CO)OC4=O)cc3F)cn2)n1 [Tedizolid]
fitness
Conditions | partner 0.0625 µg/mL | partner 0.125 µg/mL | partner 0.25 µg/mL
[1], first compound 3 µg/mL | – | 0.095 | 0.0603
[2], first compound 0.75 µg/mL | 0.584 | 0.538 | 0.189
[2], first compound 1.5 µg/mL | 0.412 | 0.285 | 0.168
[2], first compound 3 µg/mL | 0.0827 | 0.07 | 0.0466

Conditions | Bliss interaction score
[3] | -0.101
[4] | -0.179
[5] | -0.157
[6] | -0.068
